The nature of data set [1]: Brain delivery of AF680-labeled test molecules after IV injection, 3D confocal microscopy of brain sections. The data set is classed as in vivo, Balb/c mice. How it is done:
Test molecules were intravenously injected (via tail vein) in Balb/c mice and 1 hour later the animals were sacrificed as follows: Prior to euthanasia, mice were injected (i.v.) with tomato Lectin-Texas Red ([…]) for 10 min to stain the brain vasculature. Blood was cleared by intracardiac perfusion of 10 ml heparinized saline (1 ml/min). Brains were excised and frozen on dry ice and stored at −80° C. Brains were mounted in Tissue Tek and sectioned ([…], 3 sections/brain) with a cryostat at −2° C. Sections (n=3/brain) were mounted on Superfrost Plus microscope slides, fixed in cold Acetone/MeOH (1:1) for 10 min at RT, and then washed with PBS. Glass coverslips were mounted on sections using Prolong Gold antifade reagent with DAPI (Molecular probes, P36931). 3D confocal microscopy was performed (4 random fields per section were captured).
Signals for all the sections were calibrated with respect to the PBS control group in order to observe only minimal (but not completely null) AF680 fluorescent signal in those sections (see FIG. 4A).

For data set [2], the system named is mouse model of middle cerebral artery occlusion (MCAO). The experiment in a line: Infarct volume analysis (TTC staining) in mouse model of middle cerebral artery occlusion (MCAO). The data set is classed as in vivo, C57/Bl6 mice. The following applies: pretreated 3 times with 30 mg/kg IV, 1 hour MCAO, 24 hours post reperfusion. How it is done:
The NOX4 gene-targeted p97-siRNA conjugates from Example 1 were tested for their ability to provide neuroprotection in a mouse model of middle cerebral artery occlusion (MCAO) (see, e.g., Chang et al., J Vis Exp. 2761:2011; Althenhöfer et al., Cell. Mol. Life Sci. 69:2327-2343, 2012; and Kleinschnitz et al., PLoS Biol. 8(9):e1000479, 2010).
C57/Bl6 mice were pretreated 3 times (1 hour interval between each injection) with either PBS or 30 mg/kg of siRNA alone or p97-siRNA via intravenous (IV) injection. Animals were subjected to stroke via MCAO about 1 hour following the last injection, as follows. The external and internal carotid arteries (ECA and ICA, respectively) were dissected and isolated and the common carotid artery (CCA) ligated. An […] 8-0 nylon thread coated in dental silicone was inserted into a small hole in the ECA towards the bifurcation of the CCA. […]
When the TTC staining was completed, infarct size was measured by a colorimetric staining method. […]
Absorbance was measured at 485 nm in a spectrophotometer and the values were averaged. Percentage loss in brain TIC staining in the ischemic side of the brain was compared with the contralateral side of the brain of the same animal using the following equation: % loss=100×(1−absorbance of ischemic hemisphere/absorbance of contralateral hemisphere)

As to “siRNA^AF680: negative control: unconjugated NOX4 antisense strand annealed to the AF680-labeled sense strand (antisense AUGUUCACAAAGUCAGGUCTT; sense GACCUGACUUUGUGAACAUTT; sense strand linked to Alexa Fluor 680 via linker, end not given here, further chemistry not given here)”, the “AF680 signal in the vasculature” value in data set [1] (10.0 mg/kg IV via tail vein, 1 h, Balb/c mice, brain sections) is on record as “no AF680 signal was observed”. Moreover, the “perinuclear AF680 signal in the brain parenchyma” value in data set [1] (10.0 mg/kg IV via tail vein, 1 h, Balb/c mice, signals calibrated to PBS control) is given as “not detected”. For the same substance, the “AF680 (red) staining in brain tissues (immunofluorescence imaging, FIGS. 4A-4D)” value in data set [1] (mice, following intravenous administration) was “no AF680 (red) staining”. Besides, the “infarct areas / infarct volume in the brain” value in data set [2] is “large infarct areas”.

The values above are taken from patent US10058619B2, “P97-polynucleotide conjugates” (biOasis Technologies, Inc., priority 2014, dated 2018).
